Results taken from patent publication US6541480B2, “1-aryl-1,8-naphthylidin-4-one derivative as type IV phosphodiesterase inhibitor” (Suntory Limited, priority 1997, dated 2003).
Where a name gives a salt, the structure may show the parent alone.

Key:
[1] = test system: TNF-α production by LPS stimulated mouse peritoneal macrophages; test: TNF-α production inhibitory activity by LPS stimulated macrophages (ELISA); assay type: cell-based; conditions: LPS 10 μg/ml, 8 hours
Method: (1) Method of Measurement of TNF-α Production Inhibitory Activity by LPS Stimulated Macrophages
The following assay was used to evaluate the ability of the compound of the present invention to suppress TNF-α production by LPS stimulated macrophages according to Immuno pharmacol. 29, 121-127 (1995).
1) 6 to 10 week old female BALB/c mice were used, 2 ml portions of thioglycolate were intraperitoneally administered, and the abdominal cavities were washed by 10 ml of PBS after 4 days, whereby 1 to 2×10^7 peritoneal cells were obtained per mouse. These were suspended in a hemocyte solution (0.75% ammonium chloride, 17 mM tris-hydrochlorate buffer, pH7.2), centrifuged, then resuspended in an RPMI1640 medium including 10% fetal calf serum and seeded in a 96-well cell culture plate at a density of 1×10^5 cells/50 μl/well. Since these cells adhered strongly to the tissue culture plate and were positive in nonspecific esterase staining, they were used for the test as mouse peritoneal macrophages. Mouse peritoneal macrophages were precultured overnight at 37° C. in 5% CO2 for the experiment.
2) E. Coli (serum type 055:B5) derived LPS was dissolved in PBS in a concentration of 1 mg/ml, then sterilized by filtration. The test compound was dissolved in DMSO to make a 1000-fold concentration solution of the final concentration of use. 10 μl of the above LPS stock solution (final concentration 10 μg/ml) and 1 μl of the tested substance stock solution were added and mixed in 0.5 ml of RPMI1640 medium containing 10% fetal calf serum. This was added to the above cells at 50 μl/well and cultured for 8 hours. The cultured supernatant was recovered from each well and the TNF-α concentration was measured by the ELISA method (Cytoscreen® Immunoassay Kit Mouse TNF-α, BioSource International).

[2] = test system: type IV phosphodiesterase; test: Type IV phosphodiesterase inhibiting activity (3H-cAMP hydrolysis, PDE IV fraction from U937 cells); assay type: biochemical; conditions: PDE IV fraction from human U937 cells, 30° C., 30 minutes
Method: (1) Method of Measurement of Type IV Phosphodiesterase Inhibiting Activity
The following assay was used to evaluate the ability of the compound of the present invention to suppress type IV phosphodiesterase, according to Biochemical.
1) Type IV phosphodiesterase activity fractions were prepared as follows. Human histiocytic lymphoma cell line U937 was cultured in an RPMI1640 medium containing 10% fetal calf serum to obtain 10^9 cells of U937. The cells were recovered by centrifugation and suspended in 40 ml of buffer A (20 mM bis-tris, 5 mM 2-mercaptoethanol, 2 mM benzamidine, 2 mM EDTA, 0.1 mM 4-(2-aminoethyl)benzensulfonyl hydrochloride, 50 mM sodium acetate, pH=6.5). The cells were broken by a sonication and centrifuged (4° C., 10,000G, 10 minutes) to obtain a supernatent. This was filtered by a 0.45 μm filter to obtain the soluble fraction.
The soluble fraction obtained was applied into a 1×10 cm DEAE Sepharose column equalibrated with the buffer A. 120 ml of the buffer A containing a linear gradient solution of 0.05 to 1 M sodium acetate was used to separate the phosphodiesterase and recover 24 5-ml fractions. Each of the fractions was measured for the cAMP phosphodiesterase activity.
2) The test compound was reacted at a desired concentration in a reaction mixture containing 20 mM tris-HCl (pH 7.5), 1 mM MgCl2, 100 μM EDTA, 330 μg/ml calf serum albumin, 10 μg/ml 5′-nucleotidase, 0.4 μCi ^3H-cAMP ([…] cAMP) and the type IV phosphodiesterase stored solution at 30° C. for 30 minutes. QAE-Sephadex suspended in 10 mM of hepes-Na (pH-7.0) was added to the reaction mixture which was then allowed to stand for 5 minutes, then the supernatant was obtained, QAE-Sephadex was further added, to the supernatant, and was allowed to stand for 5 minutes, then the supernatant was obtained and measured for radioactivity.

| IC50 ([1]; Peritoneal macrophage) [nM] | IC50 [2] [nM] | IC50 [1] [nM] | Compound |
| --- | --- | --- | --- |
| 10000 | 5200 | – | CCn1cc(C(=O)NCCc2ccncc2)c(=O)c2ccc(C)nc21 [Comp. Ex., N-(2-(4-pyridyl)ethyl)-1-ethyl-7-methyl-1,4-dihydro[1,8]naphthylidin-4-one-3-carboxyamide, reference compound] |
| – | 930 | – | CCOC(=O)c1cn(-c2cccc([N+](=O)[O-])c2)c2ncccc2c1=O [Example 19, Ethyl 1-(3-Nitrophenyl)-1,4-dihydro[1,8]naphthylidin-4-one-3-carboxylate] |
| – | 600 | – | CCOC(=O)c1cn(-c2cccc(C(C)=O)c2)c2ncccc2c1=O [Example 24, Ethyl 1-(3-Acetophenyl)-1,4-dihydro[1,8]naphthylidin-4-one-3-carboxylate] |
| 400 | 1400 | – | NC(=O)c1cn(-c2ccc(F)cc2)c2ncccc2c1=O [Example 51, 1-(4-Fluorophenyl)-1,4-dihydro[1,8]naphthylidin-4-one-3-carboxamide] |
| – | 150 | – | CNC(=O)c1cn(-c2ccc(F)cc2)c2ncccc2c1=O [Example 52, 1-(4-Fluorophenyl)-N-methyl-1,4-dihydro[1,8]naphthylidin-4-one-3-carboxamide] |
| 10 | 27 | – | CC(C)NC(=O)c1cn(-c2ccc(F)cc2)c2ncccc2c1=O [Example 53, 1-(4-Fluorophenyl)-N-isopropyl-1,4-dihydro[1,8]naphthylidin-4-one-3-carboxamide] |
| 100 | 35 | – | C=CCNC(=O)c1cn(-c2ccc(F)cc2)c2ncccc2c1=O [Example 54, N-allyl-1-(4-fluorophenyl)-1,4-dihydro[1,8]naphthylidin-4-one-3-carboxamide] |
| 100 | 31 | – | CC(C)CNC(=O)c1cn(-c2ccc(F)cc2)c2ncccc2c1=O [Example 55, 1-(4-Fluorophenyl)-N-isobutyl-1,4-dihydro[1,8]naphthylidin-4-one-3-carboxamide] |
| – | 26 | 4 | O=C(NCC1CC1)c1cn(-c2ccc(F)cc2)c2ncccc2c1=O [Example 56, N-cyclopropylmethyl-1-(4-fluorophenyl)-1,4-dihydro[1,8]naohthylidin-4-one-3-carboxamide] |
| 1000 | 710 | – | O=C(NC1CCCCC1)c1cn(-c2ccc(F)cc2)c2ncccc2c1=O [Example 57, N-cyclohexyl-1-(4-fluorophenyl)-1,4-dihydro[1,8]naohthylidin-4-one-3-carboxamide] |
| 420 | 420 | – | O=C(NCCO)c1cn(-c2ccc(F)cc2)c2ncccc2c1=O [Example 58, 1-(4-Fluorothenyl)-N-(2-hydroxyethyl)-1,4-dihydro[1,8]naphthylidin-4-one-3-carboxamide] |
| – | 640 | – | COCCNC(=O)c1cn(-c2ccc(F)cc2)c2ncccc2c1=O [Example 59, 1-(4-fluorophenyl)-N-(2-methoxyethyl)-1,4-dihydro[1,8]naphthylidin-4-one-3-carboxamide] |
| 1000 | 390 | – | O=C(NCc1ccccc1)c1cn(-c2ccc(F)cc2)c2ncccc2c1=O [Example 61, N-benzyl-1-(4-fluorophenyl)-1,4-dihydro[1,8]naphthylidin-4-one-3-carboxamide] |
| – | 1600 | – | O=C(NCc1ccccn1)c1cn(-c2ccc(F)cc2)c2ncccc2c1=O [Example 62, 1-(4-Fluorophenyl)-N-(2-pyridyl)methyl-1,4-dihydro[1,8]naphthylidin-4-one-3-carboxamide] |
| – | 1200 | – | O=C(NCc1cccnc1)c1cn(-c2ccc(F)cc2)c2ncccc2c1=O [Example 63, 1-(4-Fluorophenyl)-N-(3-pyridyl)methyl-1,4-dihydro[1,8]naphthylidin-4-one-3-carboxamide] |
| 100 | 120 | – | O=C(NCc1ccncc1)c1cn(-c2ccc(F)cc2)c2ncccc2c1=O [Example 64, 1-(4-Fluorophenyl)-N-(4-pyridyl)methyl-1,4-dihydro[1,8]naphthylidin-4-one-3-carbdxamide] |
| – | 500 | – | COc1ccccc1NC(=O)c1cn(-c2ccc(F)cc2)c2ncccc2c1=O [Example 76, 1-(4-Fluorohenyl)-N-(2-methoxyphenyl)-1,4-dihydro[1,8]naphthylidin-4-one-3-carboxamide] |
| – | 550 | – | CCOC(=O)c1cccc(NC(=O)c2cn(-c3ccc(F)cc3)c3ncccc3c2=O)c1 [Example 85, Ethyl 3-[{[1-(4-Fluorophenyl)-1,4-dihydro[1,8]naphthylidin-4-one-3-yl]carbonyl}amino]benzoate] |
| – | 470 | – | N=C(N)c1cccc(NC(=O)c2cn(-c3ccc(F)cc3)c3ncccc3c2=O)c1 [Example 97, N-(benzamidin-3-yl)-1-(4-fluorophenyl)-1,4-dihydro[1,8]naphthylidin-4-one-3-carboxamide hydrochloride] |
| – | 650 | – | O=C(Nc1ccccc1-c1ccccc1)c1cn(-c2ccc(F)cc2)c2ncccc2c1=O [Example 100, N-(2-Biphenyl)-1-(4-fluorophenyl)-1,4-dihydro[1,8]naphthylidin-4-one-3-carboxamide] |
| – | 99 | – | Cc1ccc(-n2cc(C(=O)Nc3ccncc3)c(=O)c3cccnc32)cc1 [Example 120, N-(4-Pyridyl)-1-(4-tolyl)-1,4-dihydro[1,8]naphthylidin-4-one-3-carboxamide] |
| – | 3.1 | – | Cc1ccc(-n2cc(C(=O)Nc3c(Cl)cncc3Cl)c(=O)c3cccnc32)cc1 [Example 121, N-(3,5-Dichloroiyridin-4-yl)-1-(4-tolyl)-1,4-dihydro[18]naphthylidin-4-one-3-carboxamide] |
| – | 0.6 | – | COc1ccc(-n2cc(C(=O)Nc3c(Cl)cncc3Cl)c(=O)c3cccnc32)cc1 [Example 123, N-(3,5-Dichloropyridin-4-yl)-1-(4-methoxyphenyl)-1,4-dihydro[1,8]naphthyldin-4-one-3-carboxamide] |
| – | 110 | – | O=C(Nc1ccncc1)c1cn(-c2ccc(Cl)cc2)c2ncccc2c1=O [Example 124, 1-(4-Chlorophenyl)-N-(4-pyridyl)-1,4-dihydro[1,8]naphthylidin-4-one-3-carboxamide] |
| – | 260 | – | N=C(N)c1cccc(-n2cc(C(=O)Nc3ccncc3)c(=O)c3cccnc32)c1 [Example 130, 1-(Benzamidin-3-yl)-N-(4-pyridyl)-1,4-dihydro[1,8]naphthylidin-4-one-3-carboxamide] |
| – | 590 | – | O=C(Nc1cccnc1)c1cn(-c2ccccn2)c2ncccc2c1=O [Example 131, 1-(2-Pyridyl)-N-(3-pyridyl)-1,4-dihydro[1,8]naphthylidin-4-one-3-carboxamide] |
| – | 400 | – | O=C(Nc1ccncc1)c1cn(-c2ccc(O)nc2)c2ncccc2c1=O [Example 145, 1-(2-Hydroxypyridin-5-yl)-N-(4-pyridyl)-1,4-dihydro[1,8]naphthylidin-4-one-3-carboxamide] |
| – | 940 | – | O=C(Nc1ccncc1)c1cn(-c2cccc3cccnc23)c2ncccc2c1=O [Example 149, 1-(8-Quinonyl)-N-(4-pyridyl)-1,4-dihydro[1,8]naphthylidin-4-one-3-carboxamide] |
| – | – | 400 | CC(C)(C)OC(=O)Nc1ncc(-n2cc(C(=O)Nc3ccncc3)c(=O)c3cccnc32)cn1 [Example 150, 1-(2-tert-Butyloxycarbonylaminopyrimidin-5-yl)-N-(4-pyridyl)-1,4-dihydro[1,8]naphthylidin-4-one-3-carboxamide] |
| 100 | – | – | COc1ccc(C2CNC(=O)C2)cc1OC1CCCC1 (stereo not shown) [Rolipram, reference compound] |
